# Test results from US20230123334A1, “AMINO LIPID COMPOUND, PREPARATION METHOD THEREFOR, AND APPLICATION THEREOF” (SHENZHEN SHENXIN BIOTECHNOLOGY CO., LTD., priority 2020, published 2023).
# Tested on: HEK293 cells
# Test: Preliminary screening as mRNA vectors, EGFP mRNA transfection of HEK293 cells
# Assay type: cell-based
# Conditions: EGFP mRNA 50 ng per well, 96-well plates; percentage of GFP fluorescent cells relative to total number of cells (Hoechst)
# Method in brief: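 Each well of HEK293 cells received 50 ng of EGFP mRNA. Efficiency was expressed as percent GFP-expressing cells over Hoechst-defined total cell number.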
row,SMILES,Absolute mRNA transfection efficiency in HEK293 cells [%]
1,CCCCCCCCCCSc1nc(NCCN2CCN(C)CC2)nc(SCCCCCC)n1 [Compound D5S6S10],10.1
2,CCCCCCCCCCCSc1nc(NCCN2CCOCC2)nc(SCCCCCCC)n1 [Compound D2S7S11],24.2
3,CCCCCCCCCCCCCCSc1nc(NCCCCCCCCCCCCC)nc(NCC2CCN(C)CC2)n1 [Compound D10S14N13],11.7
4,CCCCCCCCCCCCCCSc1nc(NCCCCCCCCCCCCC)nc(NCCCN2CCN(C)CC2)n1 [Compound D9S14N13],4.8
5,CCCCCCCCCCCCSc1nc(NCCCCCCCC)nc(NCCCN2CCOCC2)n1 [Compound D8S12N8],2.3
6,CCCCCCCCCCCCCCCCCCSc1nc(NCCCCCCCCCCCCCCC)nc(NCCCN2CCOCC2)n1 [Compound D8S18N15],0.0
7,CCCCCCCCCCCCCCCCCCSc1nc(NCCCCCCCCCCCCC)nc(NCCN2CCN(C)CC2)n1 [Compound D5S18N13],1.4
8,CCCCCCCCSc1nc(NCCCCCC)nc(NCCCN2CCN(C)CC2)n1 [Compound D9S8N6],0.7
9,CCCCCCCCCCCCCCCCCCSc1nc(NCCCCCCCCCCCCC)nc(NCCN2CCOCC2)n1 [Compound D2S18N13],0.0
10,CCCCCCCCCCCCCNc1nc(NCCN2CCCCC2)nc(SCCCCCC)n1 [Compound D4S6N13],2.1
11,CCCCCCCCCCCCCCCCSc1nc(NCCCCCCCCCCCCC)nc(NCCN(C)C)n1 [Compound D1S16N13],0.9
12,CCCCCCCCCSc1nc(NCCCN(C)C)nc(SCCCCCC)n1 [Compound D6S6S9],10.6
13,CCCCCCCCCCCCSc1nc(NCCN2CCN(C)CC2)nc(SCCCCCC)n1 [Compound D5S6S12],14.0
14,CCCCCCCCCCCCCCCCCCSc1nc(NCCCCCCCCCCC)nc(NCC2CCN(C)CC2)n1 [Compound D10S18N11],4.5
15,CCCCCCCCCCCCCCCCCCSc1nc(NCCN2CCCC2)nc(SCCCCCC)n1 [Compound D3S6S18],36.8
16,CCCCCCCCCCSc1nc(NCCCCCCCCC)nc(NCC2CCN(C)CC2)n1 [Compound D10S10N9],4.2
17,CCCCCCCCCCCCCCSc1nc(NCCCCCCCC)nc(NCCN2CCOCC2)n1 [Compound D2S14N8],3.7
18,CCCCCCCCCCCCCCCCNc1nc(NCCN2CCN(C)CC2)nc(SCCCCCCCCCCCCCCCC)n1 [Compound D5S16N16],0.1
19,CCCCCCCCCCCCNc1nc(NCCN2CCCC2)nc(SCCCCCCCCCC)n1 [Compound D3S10N12],19.1
20,CCCCCCCCSc1nc(NCCCN(C)C)nc(SCCCCCC)n1 [Compound D6S6S8],21.1
21,CCCCCCCCCCCCCCCCCCNc1nc(NCCN2CCCC2)nc(SCCCCCCCCCCCCCCC)n1 [Compound D3S15N18],8.5
22,CCCCCCCCCCCCCCCCCCSc1nc(NCCCCCCCCCCCC)nc(NCCN2CCOCC2)n1 [Compound D2S18N12],2.3

row,SMILES,Absolute mRNA transfection efficiency in HEK293 cells [%]
1,CCCCCCCCCCCCCNc1nc(NCCCN2CCN(C)CC2)nc(SCCCCCCCCC)n1 [Compound D9S9N13],20.0
2,CCCCCCCCCCCCCNc1nc(NCCN2CCCC2)nc(SCCCCCCCCC)n1 [Compound D3S9N13],58.2
3,CCCCCCCCCNc1nc(NCCCN2CCN(C)CC2)nc(SCCCCCCCC)n1 [Compound D9S8N9],57.0
4,CCCCCCCCCCCCCNc1nc(NCCN2CCOCC2)nc(SCCCCCCC)n1 [Compound D2S7N13],6.2
5,CCCCCCCCCCCCN(CCCCCCCCCCCC)c1nc(NCC2CCN(C)CC2)nc(SCCCCCCCCCCC)n1 [D10S11^2N12],0.0
6,CCCCCCCCCCCCCCSc1nc(NCCCN(C)C)nc(N(CCCCCCCCCCCC)CCCCCCCCCCCC)n1 [D6S14^2N12],0.1
7,CCCCCCCCCCCCCCCCNc1nc(NCCN2CCN(C)CC2)nc(SCCCCCCCCCC)n1 [Compound D5S10N16],3.9
8,CCCCCCCCCCCCCCCCCCSc1nc(NCCCCCCCCCCCCC)nc(NCCN2CCCCC2)n1 [Compound D4S18N13],0.7
9,CCCCCCCCCCCCCCCCNc1nc(NCCN2CCN(C)CC2)nc(SCCCCCCC)n1 [Compound D5S7N16],32.2
10,CCCCCCCCCCCCCNc1nc(NCCN2CCOCC2)nc(SCCCCCCCCCCCC)n1 [Compound D2S12N13],0.0
11,CCCCCCCCCCCCN(CCCCCCCCCCCC)c1nc(NCCCN2CCN(C)CC2)nc(SCCCCCCCCCC)n1 [D9S10^2N12],0.3
12,CCCCCCCCCNc1nc(NCCCN2CCOCC2)nc(SCCCCCCCC)n1 [Compound D8S8N9],3.5
13,CCCCCCCCCCCCCCCCCCNc1nc(NCCN2CCN(C)CC2)nc(SCCCCCCCCCCCC)n1 [Compound D5S12N18],0.0
14,CCCCCCCSc1nc(NCCCCCC)nc(NCC2CCN(C)CC2)n1 [Compound D10S7N6],2.0
15,CCCCCCCCCCCCCNc1nc(NCCCN2CCOCC2)nc(SCCCCCCCCCC)n1 [Compound D8S10N13],0.2
16,CCCCCCCCSc1nc(NCCN2CCOCC2)nc(SCCCCCC)n1 [Compound D2S6S8],5.0
17,CCCCCCCCCSc1nc(NCCCCCCC)nc(NCCN(C)C)n1 [Compound D1S9N7],0.3
18,CCCCCCCCCCCCCCCCCCSc1nc(NCCCCCC)nc(NCCN(CC)CC)n1 [Compound D7S18N6],19.5
19,CCCCCCCCCCCSc1nc(NCCCCCCCC)nc(NCCN2CCN(C)CC2)n1 [Compound D5S11N8],36.2
20,CCCCCCCCCCCCCCCCNc1nc(NCCCN2CCN(C)CC2)nc(SCCCCCC)n1 [Compound D9S6N16],29.6
21,CCCCCCCCCCCCCCCCCCSc1nc(NCCN(CC)CC)nc(SCCCCCCC)n1 [Compound D7S7S18],7.1
22,CCCCCCCCCCSc1nc(NCCCCCCC)nc(NCCN(C)C)n1 [Compound D1S10N7],0.2

row,SMILES,Absolute mRNA transfection efficiency in HEK293 cells [%]
1,CCCCCCCCCCCCN(CCCCCCCCCCCC)c1nc(NCCCN(C)C)nc(SCCCCCC)n1 [D6S6^2N12],0.0
2,CCCCCCCCCCCSc1nc(NCCCCCCCC)nc(NCCCN2CCOCC2)n1 [Compound D8S11N8],0.3
3,CCCCCCCCCCCCCCCNc1nc(NCCCN2CCN(C)CC2)nc(SCCCCCCCCCCCCCCC)n1 [Compound D9S15N15],0.2
4,CCCCCCCCCCCCCCCNc1nc(NCCCN(C)C)nc(SCCCCCCCC)n1 [Compound D6S8N15],55.3
5,CCCCCCCCCNc1nc(NCC2CCN(C)CC2)nc(SCCCCCCC)n1 [Compound D10S7N9],4.6
6,CCCCCCCCCCCCCCCSc1nc(NCCN2CCOCC2)nc(SCCCCCC)n1 [Compound D2S6S15],6.9
7,CCCCCCCCCCCCCCCCCCSc1nc(NCCCCCCCC)nc(NCCCN2CCOCC2)n1 [Compound D8S18N8],0.5
8,CCCCCCCCCCCCCCCCCCNc1nc(NCCN2CCOCC2)nc(SCCCCCC)n1 [Compound D2S6N18],4.5
9,CCCCCCSc1nc(NCCN(CC)CC)nc(SCCCCCC)n1 [Compound D7S6S6],19.5
10,CCCCCCCCCCCCCCCCSc1nc(NCCCN(C)C)nc(SCCCCCC)n1 [Compound D6S6S16],34.4
11,CCCCCCCCCCCCNc1nc(NCCCN2CCOCC2)nc(SCCCCCCC)n1 [Compound D8S7N12],2.3
12,CCCCCCCCCCCCCCCCCCSc1nc(NCCCCCCC)nc(NCCCN2CCOCC2)n1 [Compound D8S18N7],3.9
13,CCCCCCCNc1nc(NCCN2CCCC2)nc(SCCCCCCC)n1 [Compound D3S7N7],6.6
14,CCCCCCCCCCCCCCCCNc1nc(NCCCN2CCOCC2)nc(SCCCCCCCCCCCCCC)n1 [Compound D8S14N16],0.4
15,CCCCCCCSc1nc(NCCN2CCCC2)nc(SCCCCCCC)n1 [Compound D3S7S7],12.2
16,CCCCCCCCCCCCN(CCCCCCCCCCCC)c1nc(NCCN(CC)CC)nc(SCCCCCCCCCC)n1 [D7S10^2N12],0.0
17,CCCCCCCCCCCCCCSc1nc(NCCCCCCCCC)nc(NCC2CCN(C)CC2)n1 [Compound D10S14N9],54.2
18,CCCCCCCCCCCCCCCCNc1nc(NCCN2CCN(C)CC2)nc(SCCCCCCCCCCCCCCC)n1 [Compound D5S15N16],1.4
19,CCCCCCCCCCCCSc1nc(NCCN(CC)CC)nc(SCCCCCC)n1 [Compound D7S6S12],8.1
20,CCCCCCCCCCCSc1nc(NCCN2CCN(C)CC2)nc(SCCCCCCCC)n1 [Compound D5S8S11],87.0
21,CCCCCCCCCCCCCCCSc1nc(NCCCCCCC)nc(NCCCN2CCOCC2)n1 [Compound D8S15N7],2.2
22,CCCCCCCCCCCCCCSc1nc(NCCCCCC)nc(NCCN2CCCC2)n1 [Compound D3S14N6],66.7
